The source of these data is US20220047567A1, “METHODS FOR THE TREATMENT OF NEUROFIBROMATOSIS” (INSERM (INSTITUT NATIONAL DE LA SANTÉ ET DE LA RECHERCHE …, priority 2018, published 2022).

Structures are written as SMILES. “Also recorded” adds a separate entry of the source.

Experiment [1] has as its system NF1−/− cells. The experiment in a line: Apoptosis assessed by PARP cleavage in NF1−/− cells. To be noted: different doses, FIG. 1C. It counts as cell-based. The text has this: (§1) FIG. 1: NF1+/+ and NF1−/− cells were exposed to either DMSO, BYL719 at different concentrations […], selumetinib at different concentrations (1 and 10 mmol·L−1) or a combination of BYL719 1 mmol·L−1 and selumetinib 10 mmol·L−1 or BYL719 1 mmol·L−1 and selumetinib 10 mmol·L−1 and IPA3. […] The addition of BYL719 to either selumetinib or selumetinib and IPA3 increases cells apoptosis. All data are shown as the means±s.e.m. ANOVA followed by Tukey-Kramer test. White column: NF1+/+, black column: NF1−/−.
(§2) Inventors first checked in immortalized NF1−/− cells if the PIK3CA pathway was recruited (FIGS. 1A, 1B and 1C). […] They then treated the cells with BYL719. […] They then exposed the NF1−/− cells to different dose of selumetinib, a MAP kinase inhibitor, drug that gave encouraging results in some patients with neurofibromatosis.

Experiment [2] relates to PIK3CA pathway (phosphorylation of AKT and S6RP) in NF1−/− cells. Put plainly: Western blot of AKT and S6RP phosphorylation in immortalized NF1−/− cells. It counts as cell-based. The settings on record: after 12 h of exposure.
Excerpt: as §1, §2
For orientation: In western blotting, separated proteins are transferred to a membrane and probed.

Take `Cc1nc(NC(=O)N2CCC[C@H]2C(N)=O)sc1-c1ccnc(C(C)(C)C(F)(F)F)c1` [BYL719]: the “apoptosis as assessed by PARP cleavage” value in experiment [1] is listed as “induces apoptosis; also recorded: increased apoptosis as assessed by PARP cleavage in a dose dependent manner”. The “phosphorylation of AKT” value in experiment [2] (FIG. 1A) is reported as “efficiently blocks; also recorded: efficiently blocking”. Further, the “phosphorylation of S6RP” value in experiment [2] (FIG. 1B) is on record as “efficiently blocks; also recorded: efficiently blocking”.
